The values that follow are results of earlier work, collected in patent publication US20080305186A1, “Method and Composition for the Treatment of Cardiac Hypertrophy” (BOARD OF REGENTS, THE UNIVERSITY OF TEXAS SYSTEM, priority 2007, published 2008).

Series [1] concerns Histone Deacetylase. The note with it: cited from earlier work.
The subject of series [2] is isoproterenol-, angiotensin II- and aortic banding induced cardiac hypertrophy. Particulars: cited from earlier work.

Turning to `CCCC(CCC)C(=O)O` [valproic acid], the “inhibition of Histone Deacetylase (HDAC)” value in series [1] is “inhibit HDAC”. Moreover, the “attenuation of cardiac hypertrophy” value in series [2] is reported as “attenuate”.
